Results reported in patent US20240294697A1, “AMPHIPHILIC OLIGOMERS AND SELF-ASSEMBLING HYDROGELS FORMED THEREFROM” (THE GOVERNING COUNCIL OF THE UNIVERSITY OF TORONTO, priority 2021, published 2024).

Tested on: primary chondrocytes
Settings: H2O2 between 25 and 100 μM
Procedure: To prepare for this experiment, specific concentrations of H2O2 and ascorbic acid were prepared by testing a range of concentrations and incubating at 37° C. On the following day, 200 μL of each condition was treated to pre-seeded primary chondrocytes at passage 6 and evaluated for its metabolic activity as per below. Each condition was performed in triplicate.
Cryopreserved Human Chondrocytes (HCH) were purchased from PromoCell at passage 2 (P2). HCH were cultured in proprietary chondrocyte growth medium and supplemented with 10% Growth Medium Supplement by PromoCell at 37° C. and 5% CO2. The medium was changed every 2-3 days until the cells achieved 80% confluence. Once the cells reached confluence, the chondrocytes were treated with the DetachKit (purchased by PromoCell). […]
Following the 24-hour exposure of the leachable material and controls, the treated media was aspirated and 110 μL of a 10% solution (v/v) of WST-1 reagent in media was added to each well and incubated for two hours to ensure that all viable cells converted the tetrazolium salt to formazan. The absorbance of formazan was read on a Plate Reader (Perkin Elmer) at 450 nm. The absorbance values of all treatments and the positive control were normalized to cells treated with media.

## OO [H2O2, hydrogen peroxide]
  concentrations evidencing cell toxicity: above 50 μM
  concentrations resulting in metabolically active cells: below 50 μM
